“Also recorded” adds a separate entry of the source. Where two headings read alike, the source gives them in different places.
Assays:
[1] = cited from earlier work; for B/P (nonclinical), percentage of brain exposure relative to plasma: mice, literature
P-gp/BCRP = settings: literature, cited from earlier work
BCRP (ABCG2) [2] = molecular target: T1, BCRP (ABCG2) (Homo sapiens, UniProt Q9UNQ0); experiment: Vesicular transport inhibition assay; format: in vitro ADME; settings: BCRP-mediated E3S accumulation
T1 construct: expressed by SOLVO Biotechnology in mammalian (K and M) cells by chemical selection; purchased SOLVO Biotechnology; host or cells: mammalian (K and M) cells, overexpression by chemical selection
T1 sequence (Q9UNQ0 1-655): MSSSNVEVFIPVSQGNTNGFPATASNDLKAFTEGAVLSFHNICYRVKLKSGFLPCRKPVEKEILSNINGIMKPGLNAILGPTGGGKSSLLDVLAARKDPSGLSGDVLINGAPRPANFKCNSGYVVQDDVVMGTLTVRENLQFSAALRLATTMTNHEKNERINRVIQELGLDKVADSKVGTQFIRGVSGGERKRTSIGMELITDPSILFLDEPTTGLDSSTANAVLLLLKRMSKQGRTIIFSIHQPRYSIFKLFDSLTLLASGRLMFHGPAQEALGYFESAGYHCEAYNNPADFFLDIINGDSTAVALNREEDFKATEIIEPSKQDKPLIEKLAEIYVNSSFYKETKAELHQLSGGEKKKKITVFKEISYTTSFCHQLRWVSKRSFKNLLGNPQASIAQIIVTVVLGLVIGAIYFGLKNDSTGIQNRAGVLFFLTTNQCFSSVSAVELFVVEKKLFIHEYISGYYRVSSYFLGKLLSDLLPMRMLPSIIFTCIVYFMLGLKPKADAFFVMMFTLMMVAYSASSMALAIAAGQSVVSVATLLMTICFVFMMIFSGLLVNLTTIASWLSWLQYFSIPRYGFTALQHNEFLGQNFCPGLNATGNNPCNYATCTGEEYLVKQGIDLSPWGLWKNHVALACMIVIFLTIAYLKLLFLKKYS
Experimental: (§1) Stock solutions of belvarafenib 2HCl (10 mM, 1.33 mM, 1 mM and 0.1 mM) were prepared in DMSO. Serial dilutions (7-step, 3-fold) were prepared in DMSO, and used as the test solutions in the inhibition assays (100-fold dilution). The dilution factor in substrate experiments was 100-fold.
(§2) Instruments used for detection include a Thermo Scientific Dionex UltiMate 3000 series UHPLC (Thermo Scientific, San Jose, CA) with a Thermo Scientific TSQ Quantum Access Max triple quadrupole MS; a Perkin Elmer MicroBeta2liquid scintillation counter (Perkin Elmer, Waltham MA) and a BMG Labtech FluoStar Omega multifunctional microplate reader (BMG Labtech, Offenburg, Germany).
(§3) Vesicular transport assays were performed with inside-out membrane vesicles prepared from cells overexpressing human ABC transporters. The transporter has been expressed by SOLVO Biotechnology in mammalian (K and M) cells by chemical selection.
(§4) Parameters of the vesicular transport assays are listed in Table 6 where: “BCRP” refers to breast cancer resistance protein; “MDR1” refers to multidrug resistance protein 1; “E3S” refers to Estrone-3-sulfate; and “NMQ” refers to N-methyl quinidine.
(§5) Belvarafenib 2HCl was incubated with membrane vesicle preparations (total protein: 50 μg/well for MDR1, and 25 µg/well for BCRP) and the probe substrate. Incubations were carried out in the presence of 4 mM ATP or AMP to distinguish between transporter-mediated uptake and passive diffusion into the vesicles. Belvarafenib 2HCl was added to the reaction mixture in 0.75 μL of solvent ([…] of the final incubation volume). Reaction mixtures were pre-incubated for 15 minutes at 37±1° C. (or 32±1° C. for BCRP). Reactions were initiated by the addition of 25 μL of 12 mM MgATP (or 12 mM AMP in assay buffer as a background control), preincubated separately. Reactions were quenched by the addition of 200 μL of ice-cold washing buffer and immediate filtration via glass fiber filters mounted to a 96-well plate (filter plate). The filters were washed (5×200 μL of ice-cold washing buffer), dried and the amount of substrate inside the filtered vesicles was determined by liquid scintillation counting.
(§6) The controls were as follows. Incubation with AMP provided background activity values for all data points. Incubation with probe substrate (solvent only) provided 100% activity values. A reference inhibitor served as positive control for inhibition.
(§7) For all wells the amount of the translocated probe substrate was determined in cpm. Relative activities were calculated using the following equation: Relative Activity %=(A−B)/(C−D)*100. A is the amount of translocated substrate in the presence of TA and ATP. B is the amount of translocated substrate in the presence of TA and AMP. C is the amount of translocated substrate in the presence of solvent and ATP. D is the amount of translocated substrate in the presence of solvent and AMP.
(§8) Microsoft Excel 2010 (Microsoft Corporation, Redmond, WA) was used for basic data processing and GraphPad Prism 5.0 (GraphPad Software Inc., San Diego, CA) was used for curve fitting and determination of reaction parameters. In vesicular transport inhibition assays, the IC50 (μM) was calculated, where applicable. IC50 was defined as the concentration of TA required to inhibit maximal activity by 50%. IC50 values were derived from a four parametric logistic equation [log(inhibitor) vs. response−variable slope]; the curve was fitted to the relative activity vs. TA concentration plot using non-linear regression.

MDR1 (ABCB1/P-gp) [3] = molecular target: T2, MDR1 (ABCB1/P-gp) (Homo sapiens, UniProt P08183); experiment: Vesicular transport inhibition assay; format: in vitro ADME; settings: MDR1-mediated NMQ accumulation
T2 construct: expressed by SOLVO Biotechnology in mammalian (K and M) cells by chemical selection; purchased SOLVO Biotechnology; host or cells: mammalian (K and M) cells, overexpression by chemical selection
Experimental: as §1, §2, §3, §4, §5, §6, §7, §8

BCRP (ABCG2) [4] = molecular target: T1, BCRP (ABCG2); experiment: Vesicular transport substrate assay; format: in vitro ADME
Experimental: as §1, §2, §3
(§9) Experimental method for vesicular transport substrate assay. The uptake of belvarafenib 2HCl into membrane vesicles was determined using inside-out membrane vesicles (total protein: 50 μg/well for MDR1, or 25 μg/well for BCRP) prepared from cells overexpressing BCRP or MDR1 ABC transporters as well as from control cells. Two incubation time points (2 and 20 min) and two concentrations (1 and 10 μM) of belvarafenib 2HCl were tested in the presence of ATP or AMP, to determine whether belvarafenib 2HCl is actively transported into the vesicles. Reaction mixtures as well as start reagents (MgATP and AMP solutions) were pre-incubated for 15 minutes at 32° C. for BCRP, and 37° C. for MDR1 assay. Reactions were initiated by addition of the start reagent (MgATP or AMP) to the appropriate wells. Reactions were quenched by the addition of 200 μL of ice-cold washing buffer and immediate filtration via glass fiber filters mounted to a 96-well plate (filter plate). The filters were washed 5×200 μL of ice-cold washing buffer and dried. The amount of accumulated belvarafenib 2HCl retained inside the vesicles was determined by LC-MS/MS detection after washing the vesicles 2 times with 100 μL MeOH:H2O (2:1).
(§10) In the vesicular transport substrate assays, the ATP-dependent transport of the TA as well as the ATP-dependent fold accumulation was calculated for each concentration and time point using the following equation, in both the transporter-containing and control vesicles:
(§11) ATP−dependent transport=nATP−NAMP Fold accumulation=nATP/nAMP
(§12) nATP is the amount of translocated TA in the presence of 4 mM ATP, in pmol/mg. nAMP is the amount of translocated TA in the presence of 4 mM AMP, in pmol/m. […]

MDR1 (ABCB1/P-gp) [5] = molecular target: T2, MDR1 (ABCB1/P-gp); experiment: Vesicular transport substrate assay; format: in vitro ADME
Experimental: as §1, §2, §3, §9, §10, §11, §12

[6] = system: patients who harbored a BRAF, NRAS, or KRAS mutation; settings: cited from earlier work
[7] = healthy subjects; cited from earlier work
[8] = concentration-independent; cited from earlier work
[9] = system: human tumor xenograft models; settings: highest doses tested; cited from earlier work
[10] = Stage III of Study MEK4592g, 18 patients
[11] = cobimetinib single agent, Study MEK4592g

T2 sequence (P08183 whole entry): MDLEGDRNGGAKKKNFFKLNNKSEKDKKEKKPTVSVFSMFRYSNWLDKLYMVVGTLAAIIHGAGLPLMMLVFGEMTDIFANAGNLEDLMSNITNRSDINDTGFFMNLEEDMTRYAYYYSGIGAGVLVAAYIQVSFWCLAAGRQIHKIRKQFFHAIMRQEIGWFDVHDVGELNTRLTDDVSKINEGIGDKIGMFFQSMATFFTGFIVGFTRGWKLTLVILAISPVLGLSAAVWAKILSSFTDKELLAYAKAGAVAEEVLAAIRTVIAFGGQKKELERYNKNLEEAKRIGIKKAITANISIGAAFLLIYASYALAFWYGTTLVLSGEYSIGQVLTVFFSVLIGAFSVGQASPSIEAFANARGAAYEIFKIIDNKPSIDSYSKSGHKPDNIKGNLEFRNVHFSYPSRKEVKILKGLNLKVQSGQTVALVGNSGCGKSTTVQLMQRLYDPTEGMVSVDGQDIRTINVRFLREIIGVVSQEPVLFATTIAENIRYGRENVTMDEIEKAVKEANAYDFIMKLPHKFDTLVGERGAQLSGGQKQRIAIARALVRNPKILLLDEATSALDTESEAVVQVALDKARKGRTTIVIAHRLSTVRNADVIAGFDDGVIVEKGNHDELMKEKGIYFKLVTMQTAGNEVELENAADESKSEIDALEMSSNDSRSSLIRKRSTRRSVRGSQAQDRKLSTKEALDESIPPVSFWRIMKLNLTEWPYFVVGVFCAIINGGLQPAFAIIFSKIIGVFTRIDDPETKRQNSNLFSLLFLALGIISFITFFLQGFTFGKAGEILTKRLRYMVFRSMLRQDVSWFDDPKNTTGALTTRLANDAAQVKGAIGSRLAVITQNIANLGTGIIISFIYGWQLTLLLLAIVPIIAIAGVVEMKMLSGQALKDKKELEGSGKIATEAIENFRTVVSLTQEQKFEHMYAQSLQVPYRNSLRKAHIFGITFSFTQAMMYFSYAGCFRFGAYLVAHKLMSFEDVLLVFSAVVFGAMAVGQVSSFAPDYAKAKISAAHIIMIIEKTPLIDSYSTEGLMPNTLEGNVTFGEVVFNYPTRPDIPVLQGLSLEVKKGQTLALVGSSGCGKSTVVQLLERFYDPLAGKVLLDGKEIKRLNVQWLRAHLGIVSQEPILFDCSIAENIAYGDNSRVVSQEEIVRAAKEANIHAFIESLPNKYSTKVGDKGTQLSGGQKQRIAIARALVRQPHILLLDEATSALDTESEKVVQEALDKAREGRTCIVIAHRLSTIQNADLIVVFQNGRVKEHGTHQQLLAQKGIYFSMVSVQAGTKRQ

CCCS(=O)(=O)Nc1ccc(F)c(C(=O)c2c[nH]c3ncc(-c4ccc(Cl)cc4)cc23)c1F [Vemurafenib]
B/P (nonclinical), percentage of brain exposure relative to plasma [1]: 0.4-1% ^ | P-gp/BCRP efflux substrate? (P-gp/BCRP): Yes (P-gp + BCRP) | P-gp/BCRP efflux substrate? (P-gp/BCRP; listed as vemurafenib): is a P-gp and a BCRP efflux substrate

CC(C)(C)c1nc(-c2cccc(NS(=O)(=O)c3c(F)cccc3F)c2F)c(-c2ccnc(N)n2)s1 [Dabrafenib]
B/P (nonclinical), percentage of brain exposure relative to plasma [1]: 2-4% | P-gp/BCRP efflux substrate? (P-gp/BCRP): Yes (P-gp + BCRP) | P-gp/BCRP efflux substrate? (P-gp/BCRP; listed as dabrafenib): is a P-gp and a BCRP efflux substrate

Cn1cnc2c(F)c(Nc3ccc(Br)cc3Cl)c(C(=O)NOCCO)cc21 [Selumetinib]
B/P (nonclinical), percentage of brain exposure relative to plasma [1]: 2% | P-gp/BCRP efflux substrate? (P-gp/BCRP): Yes (P-gp + BCRP)

COC(=O)N[C@@H](C)CNc1nccc(-c2cn(C(C)C)nc2-c2cc(Cl)cc(NS(C)(=O)=O)c2F)n1 [Encorafenib]
brain to plasma ratio ([1]; literature values): about 0.004 | B/P (nonclinical), percentage of brain exposure relative to plasma [1]: 0.4% | P-gp/BCRP efflux substrate? (P-gp/BCRP): Yes (P-gp + BCRP) | P-gp/BCRP efflux substrate? (P-gp/BCRP; listed as encorafenib): is a P-gp and a BCRP efflux substrate

C[C@@H](NC(=O)c1ncnc(N)c1Cl)c1ncc(C(=O)Nc2cc(C(F)(F)F)c(Cl)cn2)s1 [DAY101]
B/P (nonclinical), percentage of brain exposure relative to plasma [1]: 20-34% ^ | P-gp/BCRP efflux substrate? (P-gp/BCRP): Yes (BCRP)

CC(=O)Nc1cccc(-n2c(=O)n(C3CC3)c(=O)c3c(Nc4ccc(I)cc4F)n(C)c(=O)c(C)c32)c1 [Trametinib]
B/P (nonclinical), percentage of brain exposure relative to plasma [1]: 15% | P-gp/BCRP efflux substrate? (P-gp/BCRP): Yes (P-gp + BCRP)

Cc1ccc2c(Nc3cccc(Cl)c3F)nccc2c1NC(=O)c1csc2c(N)ncnc12 [belvarafenib 2HCl]
Maximum inhibition (% of control) (BCRP (ABCG2) [2]; 0.02-13.3 μM): 99.8% | IC50 (BCRP (ABCG2) [2]; estimated, top of the curve constrained at 100%): 11 nM | inhibition at 0.02 µM (BCRP (ABCG2) [2]; human, probe estrone-3-sulfate (E3S), 0.02 μM, read-out: inhibition at the lowest investigated concentration): 70% | IC50 (MDR1 (ABCB1/P-gp) [3]; estimated, bottom constrain (0%), inhibition did not reach 50%): 29.6 µM | inhibition at 13.3 µM (MDR1 (ABCB1/P-gp) [3]; human, probe N-methyl quinidine (NMQ), highest applied concentration (13.3 μM), read-out: Maximum inhibition (% of control)): 32% | Maximum ATP dependent fold accumulation in transporter expressing vesicles (BCRP (ABCG2) [4]; 1 and 10 μM, 2 and 20 min): 1.51 | Substrate (BCRP (ABCG2) [4]; BCRP VT): probably not a substrate; also recorded: Unlikely | Maximum ATP dependent fold accumulation in transporter expressing vesicles (MDR1 (ABCB1/P-gp) [5]; 1 and 10 μM, 2 and 20 min): 1.23 | Substrate (MDR1 (ABCB1/P-gp) [5]; MDR1 VT): probably not a substrate; also recorded: Unlikely

O=C(c1ccc(F)c(F)c1Nc1ccc(I)cc1F)N1CC(O)([C@@H]2CCCCN2)C1 [Cobimetinib]
B/P (nonclinical), percentage of brain exposure relative to plasma [1]: 30% | P-gp/BCRP efflux substrate? (P-gp/BCRP): Yes (P-gp) | patients with SD as best overall response [6, 10]: 22.2% | patients with unconfirmed tumor responses [6, 10]: 11.1% | patients with confirmed partial response (PR) [6, 11]: 6.2% | patients with progressive disease [6, 11]: 41.2% | food effect on pharmacokinetics, fed state compared with fasted state [7]: not altered | binding to plasma proteins [8]: 95% | tumor regression [9]: up to 100%
